Experimental findings from patent US10532085B2, “Methods for increasing intracellular activity of Hsp70” (Orphazyme A/S, priority 2010, dated 2020) are described below.

In one test the test system is U-2-OS cells. The test is described as follows: Lysosomal integrity upon photo-oxidation (acridine orange and blue light). The format is cell-based, Human. The method, then:
FIG. 2: Lysosomal Hsp70 stabilizes lysosomal membranes. (a) Representative confocal images of U-2-OS cells incubated with 300 nM rHsp70-AF488 (green) for 24 h, fixed and stained for lysosomal integral membrane protein-1 (LIMP-1; red). For co-localization with other organelle markers see FIG. 3. (b) U-2-OS cells were incubated with 300 nM rHsp70-AF488 for 24 h before quantification of rHsp70-AF488 in membranes (memb.) and supernatant (sup.) obtained by repeated freeze/thaw cycles and centrifugation the light membrane fraction (LMF). […] (c) Representative still images of U-2-OS cells exposed to photo-oxidation (acridine orange and blue light). The loss of lysosomal integrity is visualized by the loss of red and increase in green staining. (d and e) U-2-OS cells were incubated with indicated recombinant proteins (300 nM) for 24 h, and analyzed for lysosomal integrity upon photo-oxidation. When indicated, cells were treated with indicated siRNAs for 48 h prior to the addition of recombinant proteins (e). The values represent means±SD (standard deviation) for three (d) or five (e) independent experiments. Representative immunoblots of indicated proteins from U-2-OS cells left untreated or treated with control or Hsp70 siRNAs are shown on the right. Scale bars: 20 μm (a and c).
WT- and Hsp70-MEFs were generated, immortalized and maintained as described in the art. Human NPDA fibroblasts (83/24) originate from a skin biopsy of a patient with hepatosplenomegaly. Recombinant proteins were generated using the pET-16b vector system and Ni^2+-affinity-purification (Novagen), and labeled with Alexa Fluor 488 according to manufacturers protocol (Molecular Probes). To analyze the lysosomal integrity, we developed a real time imaging method of cells stained with acridine orange, a metachromatic weak base that accumulates in the acidic compartment of the cells staining them red and sensitizing them to photo-oxidation. The photo-oxidation-induced loss of the lysosomal pH-gradient and leakage of acridine orange to the cytosol from individual lysosomes was quantified visually as “loss of red dots” in U2-O—S cells and as a decrease in red and an increase in green fluorescence by Zeiss LSM DUO Software in fibroblasts. The total and cytoplasmic (digitonin-extracted) cathepsin activities were measured in digitonin-treated samples using zFR-AFC (Enzyme System Products) probe as described in the art. The tryptophan fluorescence spectra and liposome 90° light scattering were analyzed in a HEPES buffer (20 mM HEPES, 0.1 mM EDTA, pH as indicated) essentially as described in the art. Surface plasmon resonance measurements were performed with immobilized LUVs using a BIAcore 2000 system as described in the art. Hsp70 siRNA (5′-[…]-3′) and a […] were transfected with Oligofectamine (Invitrogen). Immunodetection was performed with standard protocols. Apoptosis-like cell death and lysosomal membrane permeabilization were analyzed essentially as described in the art. ASM activity was analyzed by Amplex Red Sphingomyelinase Assay Kit (A12220) from Molecular Probes with modifications described in the art. Statistical analysis was performed using a two-tailed, paired Student's T-test and all groups of data were tested for the comparability of their variances using an F-test.
Sub-confluent cells incubated with 2 μg/ml acridine orange for 15 min at 37° C. were washed, irradiated and analyzed in Hanks balanced salt solution complemented with 3% fetal calf serum. Cells for single cell imaging were selected from 8 pre-defined areas of each well in transmitted light-mode after which the same cells were immediately visualized and exposed to blue light from USH102 100W mercury arc burner (Ushio electric) installed in a U-ULS100HG housing (Olympus) for 20 sec. Fluorescence microscopy was performed on Olympus IX-70 inverted microscope with a LCPlanF1 ×20 objective with NA=0.40. […]

Another test concerns NPC−/− mice. The test is described as follows: NPC1 in vivo pilot study: tissue cholesterol (Amplex Red Cholesterol Assay). The method, then: Eight treated (rHSP70) NPC^−/− versus eight control (PBS only) NPC^−/− controls. Mice were treated IP three times per week with either 10 mg/kg of rHSP70 or vehicle alone (PBS) from 3 weeks of age. Three control and three treated mice were sacrificed at 7 or 9 weeks old (i.e. after 4 or 6 weeks of treatment, respectively). Organs were perfused (PBS), weighed and frozen for biochemical and immunohistochemical analysis.
Organs were homogenised without any added buffer and frozen as 10 ul aliquots. Fresh aliquots were reconstituted to 100 ul with PBS prior to biochemical analysis. Protein determination for each aliquot was performed by BCA protein assay. Cholesterol assays were performed using the Amplex Red Cholesterol Assay from Invitrogen^i. Sphingosine was isolated by sphingoid base extraction and analysed by HPLC^i. GSLs were extracted and analysed by fluorescent HPLC^i. All results were standardised for protein content.

Test [1] in a line: Liposome 90° light scattering, POPS. The format is binding. The settings on record: pH 6.0 vs pH 7.4. The text has this: Thus, we investigated the interaction of Hsp70 with palmitoyl-oleoyl-phosphatidylcholine (POPC) large unilamellar vesicles (LUVs) containing various membrane-associated anionic lipids, i.e. palmitoyl-oleoyl-phosphatidylserine (POPS; primarily in plasma membrane), cardiolipin (primarily mitochondrial) and BMP (primarily in late endosomes/lysosomes). Taking into account the increasingly acidic milieu of the endo-lysosomal compartment upon maturation to lysosomes, we compared the protein-lipid interactions in neutral (pH 7.4) and acidic (pH 6.0) conditions. […] As reported earlier for POPS, all negatively charged lipids enhanced the binding of rHsp70 to the liposomes at neutral pH approximately 4-fold irrespective of the charge density on the liposome surface (ranging from −1 to −2).
The tryptophan fluorescence spectra (RFI) and liposome 90° light scattering (RSI) were analyzed in a HEPES buffer (20 mM HEPES, 0.1 mM EDTA, pH 7.4 or 6.0 as indicated) employing LUVs consisting of indicated lipids essentially as described in the art. For the RFI, LUVs were added in 10 μM aliquots and spectra recorded after a 20 min stabilization period. For the RSI, recombinant proteins were added in 0.12 nmol aliquots.

Take “rHsp70: recombinant (human) heat shock protein 70; in some tests labelled with Alexa Fluor 488”: the “protection of lysosomes against photo-oxidation (lysosomal stabilization)” value with U-2-OS cells (recombinant proteins 300 nM, 24 h) is on record as “protected lysosomes against photo-oxidation”. In addition, the “reversal of Hsp70 siRNA-induced sensitization to photo-oxidation” value in the test with U-2-OS cells (siRNA 48 h prior to addition of recombinant protein (300 nM)) is “fully reverted”. In addition, the “cholesterol in peripheral tissue” value in the test with NPC−/− mice (7 week time point, compared to control) is recorded as “significant decreases”. Moreover, the brain cholesterol result in the test with NPC−/− mice (7 week time point, done in triplicate) is on record as “decrease, although the decrease only occurred in one repeat of the experiment”. Besides, the cholesterol entry in the test on NPC−/− mice (9 week time point) is given as “no difference”. Also, the “binding to POPS upon acidification” value in test [1] is listed as “only slightly increased”.
